Among the data in patent US7276528B2, “Compounds for the inhibition of nitric oxide synthase” (AstraZeneca AB, priority 2001, dated 2007) are IC50 values, retold here.

Structures can show the parent of a compound that is named as a salt.

Format in all cases: biochemical
Conditions in all cases: recombinant human enzyme expressed in E. coli; 60 min pre-incubation with NADPH; 3 μM [3H]arginine

For test [1], the target named is T1, Recombinant human nNOS (Homo sapiens, UniProt P29475).
T1 construct: made in house; host or cells: E. coli (lysate)
Nature of the test: Screen 2: recombinant human NO synthase inhibition, L-[3H]citrulline formation (nNOS). As to the method:
(§1) Recombinant human NO synthases (iNOS, eNOS & nNOS) were expressed in E. coli and lysates were prepared in Hepes buffer (pH 7.4) containing co-factors (FAD, FMN, H4B), protease inhibitors, lysozyme and the detergent, CHAPS. These preparations were used, at suitable dilution, to assess inhibition of the various isoforms. Inhibition of NOS was determined by measuring the formation of L-[^3H]citrulline from L-[^3H]arginine using an adaptation of the method of Förstermann et al. Enzyme assays were performed in the presence of 3 μM [^3H]arginine, 1 mM NADPH and other co-factors required to support NOS activity (FAD, FMN, H4B, calmodulin, Ca^2+). […] Incubations continued for a further 60 min before the assays were quenched and [^3H]citrulline separated from unreacted substrate by chromatography on Dowex-50 W resin in a 96-well format.

The target in test [2] is T2, Recombinant human eNOS (Homo sapiens, UniProt P29474).
T2 construct: made in house; host or cells: E. coli (lysate)
The test is described as follows: Screen 2: recombinant human NO synthase inhibition, L-[3H]citrulline formation (eNOS).

Test [3] addresses T3, Recombinant human iNOS (Homo sapiens, UniProt P35228).
T3 construct: made in house; host or cells: E. coli (lysate)
Nature of the test: Screen 2: recombinant human NO synthase inhibition, L-[3H]citrulline formation (iNOS). As to the method:
as §1

T3 sequence (P35228 whole entry): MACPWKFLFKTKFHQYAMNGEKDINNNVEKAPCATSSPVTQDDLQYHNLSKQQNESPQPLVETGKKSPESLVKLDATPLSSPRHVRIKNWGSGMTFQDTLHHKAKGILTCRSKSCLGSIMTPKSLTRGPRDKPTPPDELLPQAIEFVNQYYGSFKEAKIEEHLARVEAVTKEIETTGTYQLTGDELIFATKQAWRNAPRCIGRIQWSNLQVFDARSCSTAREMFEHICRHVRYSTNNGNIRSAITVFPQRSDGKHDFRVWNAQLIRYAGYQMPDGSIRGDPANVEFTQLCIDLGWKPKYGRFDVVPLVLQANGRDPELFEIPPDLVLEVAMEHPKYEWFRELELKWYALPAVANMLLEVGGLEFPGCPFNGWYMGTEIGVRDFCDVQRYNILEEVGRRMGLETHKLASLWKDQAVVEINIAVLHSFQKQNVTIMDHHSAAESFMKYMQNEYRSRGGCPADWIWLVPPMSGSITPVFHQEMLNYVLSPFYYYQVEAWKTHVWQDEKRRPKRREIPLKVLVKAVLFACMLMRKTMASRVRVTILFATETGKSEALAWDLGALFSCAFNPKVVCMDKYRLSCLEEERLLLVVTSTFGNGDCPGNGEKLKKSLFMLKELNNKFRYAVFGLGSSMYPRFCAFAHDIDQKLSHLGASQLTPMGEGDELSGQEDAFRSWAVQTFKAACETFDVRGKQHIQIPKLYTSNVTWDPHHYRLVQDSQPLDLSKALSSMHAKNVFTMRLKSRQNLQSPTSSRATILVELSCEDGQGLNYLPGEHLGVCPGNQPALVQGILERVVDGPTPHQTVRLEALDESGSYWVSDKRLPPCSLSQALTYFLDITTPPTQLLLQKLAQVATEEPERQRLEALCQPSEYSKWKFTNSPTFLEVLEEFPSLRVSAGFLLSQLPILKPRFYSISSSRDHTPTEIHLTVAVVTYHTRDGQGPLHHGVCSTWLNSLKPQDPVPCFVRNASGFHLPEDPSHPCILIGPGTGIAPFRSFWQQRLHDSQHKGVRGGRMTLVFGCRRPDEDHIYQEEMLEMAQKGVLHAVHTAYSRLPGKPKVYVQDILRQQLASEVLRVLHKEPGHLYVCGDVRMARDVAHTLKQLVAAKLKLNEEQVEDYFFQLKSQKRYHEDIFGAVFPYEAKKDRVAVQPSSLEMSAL
T2 sequence (P29474 whole entry): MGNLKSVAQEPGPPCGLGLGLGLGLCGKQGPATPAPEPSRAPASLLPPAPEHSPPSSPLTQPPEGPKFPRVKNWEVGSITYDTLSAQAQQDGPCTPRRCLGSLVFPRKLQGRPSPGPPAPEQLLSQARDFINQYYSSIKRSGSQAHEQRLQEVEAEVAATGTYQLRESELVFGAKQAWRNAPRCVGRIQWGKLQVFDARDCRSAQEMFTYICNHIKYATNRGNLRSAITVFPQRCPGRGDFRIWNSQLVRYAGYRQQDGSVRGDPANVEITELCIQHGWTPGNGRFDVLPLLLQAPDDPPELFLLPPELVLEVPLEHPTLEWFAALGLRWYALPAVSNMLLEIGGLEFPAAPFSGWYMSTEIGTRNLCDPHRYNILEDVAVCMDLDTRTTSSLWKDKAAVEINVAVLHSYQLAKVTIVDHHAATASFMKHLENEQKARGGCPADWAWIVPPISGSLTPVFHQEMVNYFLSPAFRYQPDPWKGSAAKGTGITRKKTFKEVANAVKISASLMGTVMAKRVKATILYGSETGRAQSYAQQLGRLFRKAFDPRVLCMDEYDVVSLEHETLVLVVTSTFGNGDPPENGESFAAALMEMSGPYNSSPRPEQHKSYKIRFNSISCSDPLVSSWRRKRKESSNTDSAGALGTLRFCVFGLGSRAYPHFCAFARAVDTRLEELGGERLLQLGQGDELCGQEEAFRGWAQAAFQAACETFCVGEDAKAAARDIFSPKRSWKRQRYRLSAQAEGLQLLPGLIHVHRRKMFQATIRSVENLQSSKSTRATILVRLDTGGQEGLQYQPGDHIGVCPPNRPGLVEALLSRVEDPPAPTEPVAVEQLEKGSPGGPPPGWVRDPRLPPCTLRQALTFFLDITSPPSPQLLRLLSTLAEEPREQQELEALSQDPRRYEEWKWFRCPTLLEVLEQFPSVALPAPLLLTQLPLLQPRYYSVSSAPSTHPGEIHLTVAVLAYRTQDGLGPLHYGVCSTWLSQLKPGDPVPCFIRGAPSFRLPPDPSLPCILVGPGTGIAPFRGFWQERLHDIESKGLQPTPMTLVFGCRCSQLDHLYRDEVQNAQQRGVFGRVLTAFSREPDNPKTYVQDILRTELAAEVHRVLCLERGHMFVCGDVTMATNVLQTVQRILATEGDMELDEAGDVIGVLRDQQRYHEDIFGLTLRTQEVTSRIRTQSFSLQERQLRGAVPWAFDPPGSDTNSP
T1 sequence (P29475 whole entry): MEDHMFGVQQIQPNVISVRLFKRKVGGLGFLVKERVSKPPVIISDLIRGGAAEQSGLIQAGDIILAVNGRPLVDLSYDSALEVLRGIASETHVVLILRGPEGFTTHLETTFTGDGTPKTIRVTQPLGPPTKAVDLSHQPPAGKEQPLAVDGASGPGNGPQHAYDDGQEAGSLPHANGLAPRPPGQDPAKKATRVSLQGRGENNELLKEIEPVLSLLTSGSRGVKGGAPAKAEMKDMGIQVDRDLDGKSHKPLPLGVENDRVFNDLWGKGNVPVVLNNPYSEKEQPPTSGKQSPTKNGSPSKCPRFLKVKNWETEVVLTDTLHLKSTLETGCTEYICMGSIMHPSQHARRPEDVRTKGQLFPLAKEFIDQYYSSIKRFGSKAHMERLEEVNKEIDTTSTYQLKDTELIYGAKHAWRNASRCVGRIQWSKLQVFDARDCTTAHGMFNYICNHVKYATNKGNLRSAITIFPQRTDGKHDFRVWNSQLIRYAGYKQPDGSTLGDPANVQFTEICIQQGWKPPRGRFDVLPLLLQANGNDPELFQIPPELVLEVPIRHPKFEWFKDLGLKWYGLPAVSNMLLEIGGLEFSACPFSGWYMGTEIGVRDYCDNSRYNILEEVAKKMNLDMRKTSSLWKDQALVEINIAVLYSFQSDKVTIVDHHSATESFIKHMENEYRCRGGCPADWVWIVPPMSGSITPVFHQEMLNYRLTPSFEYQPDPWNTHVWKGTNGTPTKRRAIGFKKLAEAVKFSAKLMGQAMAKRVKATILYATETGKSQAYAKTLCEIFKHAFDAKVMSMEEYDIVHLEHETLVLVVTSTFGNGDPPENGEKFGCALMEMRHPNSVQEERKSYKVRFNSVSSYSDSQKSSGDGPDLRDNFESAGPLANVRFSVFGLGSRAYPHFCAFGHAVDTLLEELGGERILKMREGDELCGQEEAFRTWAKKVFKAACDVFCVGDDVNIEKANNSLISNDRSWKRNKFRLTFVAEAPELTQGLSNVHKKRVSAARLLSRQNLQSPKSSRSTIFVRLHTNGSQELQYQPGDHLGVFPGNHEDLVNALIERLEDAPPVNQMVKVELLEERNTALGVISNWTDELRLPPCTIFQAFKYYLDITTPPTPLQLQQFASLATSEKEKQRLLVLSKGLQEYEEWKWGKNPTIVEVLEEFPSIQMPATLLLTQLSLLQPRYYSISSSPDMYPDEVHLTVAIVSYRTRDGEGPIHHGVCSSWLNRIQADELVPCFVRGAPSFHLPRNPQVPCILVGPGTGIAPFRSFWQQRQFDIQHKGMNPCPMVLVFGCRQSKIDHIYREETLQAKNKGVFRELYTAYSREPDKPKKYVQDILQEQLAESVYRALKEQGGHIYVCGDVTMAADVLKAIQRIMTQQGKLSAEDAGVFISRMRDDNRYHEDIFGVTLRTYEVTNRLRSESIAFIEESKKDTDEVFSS

`CN(C)Cc1cccc(Oc2cc(Cl)ccc2C#N)c1` [Example 25, 4-Chloro-2-[3-(dimethylaminomethyl)phenoxy]benzonitrile fumarate]: the 50% inhibitory concentration (IC50) in test [1] was 0.2 µM; in test [2], 44 µM; in test [3] it was 0.09 µM.
For `CNCc1ccc(Oc2cc(Cl)ccc2C#N)c2ccccc12` [Example 24, 4-Chloro-2-[4-(methylaminomethyl)naphthalen-1-yloxy]benzonitrile fumarate], in that order: 0.039 µM, 5.4 µM and 0.16 µM.
Turning to `CNCc1cccc(Oc2cc(Cl)ccc2C#N)c1` [Example 10, 4-Chloro-2-(3-methylaminomethyl-phenoxy)-benzonitrile fumarate], the values for the IC50 in test [1], in test [2] and in test [3] were 0.0048 µM, 0.34 µM and 0.0029 µM, respectively.
